Test results reported in patent US20110269790A1, “NOVEL THIENOPYRIDINES AS PHARMACOLOGICALLY ACTIVE AGENTS” (priority 2009, published 2011).
Converted amounts (≈) assume the structure as drawn.

Test system: not given
Experiment: not given
Details: not given

| SMILES | melting point [°C] |
| --- | --- |
| Nc1c2c(nc3sc4c(c13)CCCC4)CCC2 [BN-5, 2,3,6,7,8,9-Hexahydro-1H-benzo[4,5]thieno[2,3-b]cyclopenta[e]pyridin-10-amine] | 221 |
| Nc1c2c(nc3sc4c(c13)CCC4)CCC2 [BN-13, 1,2,3,6,7,8-hexahydrocyclopenta [b]cyclopenta[4,5] thieno[3,2-e]pyridin-9-amine] | 245 |

Test system: crude intestinal α-glucosidase
Experiment: In-vitro mammalian (rat intestinal) α-glucosidase inhibition assay
Format: biochemical
Details: not given
Source text: (§1) Chemicals: α-Glucosidase [(EC 3.2.1.20) Type I: from bakers yeast], rat intestinal acetone powder (as a source of crude intestinal α-glucosidase), α-amylase [EC 3.2.1.1) Type VI B: from porcine pancreas], p-nitrophenyl α-D-glucopyranoside, 3,5-dinitro salicylic acid, soluble potato starch and 1-deoxyrojirimycine, were purchased from Sigma Chemical Co., St Louis, Mo., USA. Other chemicals of analytical grade were procured from indigenous manufacturers.
(§2) In-vitro a-Glucosidase Inhibition Assay: Yeast and intestinal a-glucosidase inhibitory activities were determined as per reported methods (Babu et al., 2004; Mc Dougall et al., 2005). Rat intestinal acetone powder in normal saline (100% w/v) was sonicated properly and the supernatant was used as a source of crude intestinal a-glucosidase after centrifugation. In brief, 20 μl, of test samples (100 mg/ml DMSO solution) were reconstituted in 100 μl of 100 mM-Phosphate buffer (pH 6.8) in a 96-well microplate and incubated with 50 μl yeast a-glucosidase (0.76 μ/ml in same buffer) or crude intestinal a-glucosidase for 5 min before 50-μl substrate (5 mM, […] prepared in same buffer) was added. Release of p-nitrophenyol was measured at 405 nm spectrophotometrically (Spectra Mas Plus 384, Molecular Device corporation, Sunnyvale, Calif., USA) 5 min after incubation with substrate, individual blank for test samples were prepared to correct background absorbance where the substrate was replaced with 50 μl of buffer. The control sample contained 20 μl DMSO in place of test samples. The percentage of enzyme inhibition was calculated as (A−B/A)×100 where A is represents the absorbance of the control without test samples, and B represents the absorbance in the presence of test samples. […] The IC50 values were calculated by applying logarithmic regression analysis from the mean inhibitory values.

| SMILES | Mammalian α-glucosidase inhibitory activity (in words) |
| --- | --- |
| Nc1c2c(nc3sc4c(c13)CCC4)CCC2 [BN-13, 1,2,3,6,7,8-hexahydrocyclopenta [b]cyclopenta[4,5] thieno[3,2-e]pyridin-9-amine] | significant inhibitory activity |

Same assay, conditions: 0.039063 mg/ml

| SMILES | Mammalian α-glucosidase inhibition (Mean ± S.E) [%] |
| --- | --- |
| Nc1c2c(nc3sc4c(c13)CCC4)CCC2 [BN-13, 1,2,3,6,7,8-hexahydrocyclopenta [b]cyclopenta[4,5] thieno[3,2-e]pyridin-9-amine] | 10.06 ± 1.36 |

Same assay, conditions: 0.078125 mg/ml

| SMILES | Mammalian α-glucosidase inhibition (Mean ± S.E) [%] |
| --- | --- |
| Nc1c2c(nc3sc4c(c13)CCC4)CCC2 [BN-13, 1,2,3,6,7,8-hexahydrocyclopenta [b]cyclopenta[4,5] thieno[3,2-e]pyridin-9-amine] | 27.07 ± 1.93 |

Same assay, conditions: 0.15625 mg/ml

| SMILES | Mammalian α-glucosidase inhibition (Mean ± S.E) [%] |
| --- | --- |
| Nc1c2c(nc3sc4c(c13)CCC4)CCC2 [BN-13, 1,2,3,6,7,8-hexahydrocyclopenta [b]cyclopenta[4,5] thieno[3,2-e]pyridin-9-amine] | 34.89 ± 2.28 |

Same assay, conditions: 0.3125 mg/ml

| SMILES | Mammalian α-glucosidase inhibition (Mean ± S.E) [%] |
| --- | --- |
| Nc1c2c(nc3sc4c(c13)CCC4)CCC2 [BN-13, 1,2,3,6,7,8-hexahydrocyclopenta [b]cyclopenta[4,5] thieno[3,2-e]pyridin-9-amine] | 44.87 ± 1.62 |

Same assay, conditions: 0.625 mg/ml

| SMILES | Mammalian α-glucosidase inhibition (Mean ± S.E) [%] |
| --- | --- |
| Nc1c2c(nc3sc4c(c13)CCC4)CCC2 [BN-13, 1,2,3,6,7,8-hexahydrocyclopenta [b]cyclopenta[4,5] thieno[3,2-e]pyridin-9-amine] | 52.97 ± 1.47 |

Same assay, conditions: 1.25 mg/ml

| SMILES | Mammalian α-glucosidase inhibition (Mean ± S.E) [%] |
| --- | --- |
| Nc1c2c(nc3sc4c(c13)CCC4)CCC2 [BN-13, 1,2,3,6,7,8-hexahydrocyclopenta [b]cyclopenta[4,5] thieno[3,2-e]pyridin-9-amine] | 67.24 ± 1.08 |

Same assay, conditions: 2.5 mg/ml

| SMILES | Mammalian α-glucosidase inhibition (Mean ± S.E) [%] |
| --- | --- |
| Nc1c2c(nc3sc4c(c13)CCC4)CCC2 [BN-13, 1,2,3,6,7,8-hexahydrocyclopenta [b]cyclopenta[4,5] thieno[3,2-e]pyridin-9-amine] | 71.39 ± 1.82 |

Same assay, conditions: 5 mg/ml

| SMILES | Mammalian α-glucosidase inhibition (Mean ± S.E) [%] |
| --- | --- |
| Nc1c2c(nc3sc4c(c13)CCC4)CCC2 [BN-13, 1,2,3,6,7,8-hexahydrocyclopenta [b]cyclopenta[4,5] thieno[3,2-e]pyridin-9-amine] | 76.13 ± 0.03 |

Same assay, conditions: highest concentration 5 mg/ml

| SMILES | Mammalian α Glucosidase Inhibition (Mean ± S.E) [%] |
| --- | --- |
| Nc1c2c(nc3sc4c(c13)CCCC4)CCC2 [BN-5, 2,3,6,7,8,9-Hexahydro-1H-benzo[4,5]thieno[2,3-b]cyclopenta[e]pyridin-10-amine] | 0.0 ± 0.0 |
| Nc1c2c(nc3sc4c(c13)CCC4)CCC2 [BN-13, 1,2,3,6,7,8-hexahydrocyclopenta [b]cyclopenta[4,5] thieno[3,2-e]pyridin-9-amine] | 76.13 |

Same assay, conditions: mammalian α-glucosidase, dose response study

| SMILES | IC50 [mg/mL] |
| --- | --- |
| Nc1c2c(nc3sc4c(c13)CCC4)CCC2 [BN-13, 1,2,3,6,7,8-hexahydrocyclopenta [b]cyclopenta[4,5] thieno[3,2-e]pyridin-9-amine] | 0.509 (≈ 2210 µM) |

Target: T1, yeast α-glucosidase (Saccharomyces cerevisiae, UniProt P53341)
T1 construct: α-Glucosidase [(EC 3.2.1.20) Type I: from bakers yeast]
T1 sequence (P53341 whole entry): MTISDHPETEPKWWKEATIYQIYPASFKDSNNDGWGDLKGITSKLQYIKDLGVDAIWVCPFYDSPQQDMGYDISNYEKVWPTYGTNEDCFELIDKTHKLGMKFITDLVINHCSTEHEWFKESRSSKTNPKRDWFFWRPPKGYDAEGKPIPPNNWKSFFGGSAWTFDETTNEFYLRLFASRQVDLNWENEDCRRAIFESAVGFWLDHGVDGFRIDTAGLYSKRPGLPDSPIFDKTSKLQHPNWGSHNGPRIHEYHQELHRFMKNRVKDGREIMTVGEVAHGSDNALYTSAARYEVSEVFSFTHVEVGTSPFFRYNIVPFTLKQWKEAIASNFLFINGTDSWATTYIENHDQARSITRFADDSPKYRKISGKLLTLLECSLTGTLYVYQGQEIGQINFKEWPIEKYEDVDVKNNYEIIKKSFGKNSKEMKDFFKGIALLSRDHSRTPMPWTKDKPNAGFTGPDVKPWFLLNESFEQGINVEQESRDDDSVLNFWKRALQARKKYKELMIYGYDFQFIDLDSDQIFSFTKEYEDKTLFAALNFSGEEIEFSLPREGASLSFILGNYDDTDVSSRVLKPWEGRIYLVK
Experiment: In-vitro yeast α-glucosidase inhibition assay
Format: biochemical, bakers yeast
Details: not given
Source text: as §1, §2

| SMILES | Yeast α-glucosidase enzyme inhibitory activity (in words) |
| --- | --- |
| Nc1c2c(nc3sc4c(c13)CCCC4)CCC2 [BN-5, 2,3,6,7,8,9-Hexahydro-1H-benzo[4,5]thieno[2,3-b]cyclopenta[e]pyridin-10-amine] | moderate inhibitory activity |
| Nc1c2c(nc3sc4c(c13)CCC4)CCC2 [BN-13, 1,2,3,6,7,8-hexahydrocyclopenta [b]cyclopenta[4,5] thieno[3,2-e]pyridin-9-amine] | moderate inhibitory activity |

Test system: mice
Experiment: Adenosine mediated bronchoconstriction and lung inflammation in an allergic mouse model
Format: in vivo
Parameters: Total count: unit not given here
Details: BAL fluid cells; 100 mg/kg oral
Protocol: Thienopyridines were proven as potent cytotoxic and anti-inflammatory agents in the previous experimental results. In cytotoxic MTT assay, activity of these molecules may be due to the involvement of adenosine receptors. Further, to find the bronchodilatory activity of these moieties and to find the involvement of adenosine receptors in their action, non-invasive and invasive adenosine mediated bronchoconstriction and lung inflammation in an allergic mouse model was performed.
Male mice, 6-8 weeks of age, free of specific pathogens were obtained from National Institute of Nutrition. The animals were maintained on a ragweed-free diet. All experimental protocols used in this study were under a protocol approved by animal ethical committee. Sensitization was performed according to the modified procedure described by Fan et al, 2002. Mice were sensitized on days 1 and 6 with i.p. injections of ragweed allergen (200 μg/200 μl of water for injection). Non-sensitized control animals received only water for injection with the same volumes. Ten days after sensitization, the mice were placed in plexiglas chamber and challenged with 0.5% ragweed or with 0.9% saline as a control for twenty minutes both in the morning and evening for three days. Then mice were divided into different groups consisting of six animals each. The groups including a control without sensitization; a sensitized group and a standard group along with groups of the test molecules were separated. Twenty-four hours after last challenge with ragweed, the mice were given an oral dose of test molecules and theophylline (100 mg/kg body weight) as acacia suspension. Two hours after administration of the oral dose, the mice were challenged with adenosine solution (24 mg/ml). The variation in respiration was recorded after anaesthetizing them with pentobarbitone sodium (0.1 ml 200 mg/ml ip) using kymograph. Then, mice were sacrificed and trachea was cannulated to collect the bronchoalveolar lavage fluid. This was performed by pumping 1 ml phosphate buffered saline into lungs through tracheal cannula and collecting the sample. Analysis of BAL fluid was performed to get the cellular differentials. The BAL fluid was centrifugated at 1500 rpm for six minutes at room temparature. After removing the supernatant, BAL cells were resuspended in 1 ml of phosphate buffered saline. Total cells were then counted manually in a hemocytometer chamber. A differential count of at least 300 cells was made according to the standard morphologic criteria and results were mentioned in table.

| SMILES | Differential count (%) Eosinophils [%] | Differential count (%) Lymphocytes [%] | Differential count (%) Monocytes [%] | Total count |
| --- | --- | --- | --- | --- |
| Nc1c2c(nc3sc4c(c13)CCC4)CCC2 [BN-13, 1,2,3,6,7,8-hexahydrocyclopenta [b]cyclopenta[4,5] thieno[3,2-e]pyridin-9-amine] | 20 | 74 | 16.5 | 8 |

Test system: Wistar rats
Experiment: Carrageenan induced paw edema model
Format: in vivo, rat
Details: Rattus norvegicus, po, 3 h, read-out: % Increase in Paw Volume
Protocol: Male Albino Wistar rats of 150-180 grams were used for the experiments.
Anti-inflammatory activity of test compounds was evaluated in Wistar rats employing the method of Winter et al (1963) and Diwan et al (1989). Male Wistar rats were used for the study. […] The different test compounds were administered to the animals in the test group at the dose of 100 mg/kg, by oral route. Animals in the standard group received Indomethacin at the dose of 10 mg/kg, by oral route. All test and standard compounds were administered as 1% gum acacia suspension. Rats in the control group received the vehicle solution without drugs. One hour after test drugs administration, rats in all the groups were challenged with 0.1 ml of 1% Carrageenan in the sub plantar region of right hind paw. A zero hour paw volume was measured for all the rats using digital plethysmometer (Ugo Basile, Italy) before the administration of carrageenan for all groups. Paw volumes were again measured 3 hrs after the challenge of Carrageenan. The percent inhibition of paw volume for each rat in treated groups was calculated by comparing with mean paw volume of control group and expressed as mean (±SE) percent inhibition of paw volume for each test. In a preliminary study the compounds that have shown good activity were evaluated for dose response study by using above procedure.

| SMILES | change in vivo at 100 mg/kg [%] |
| --- | --- |
| Nc1c2c(nc3sc4c(c13)CCC4)CCC2 [BN-13, 1,2,3,6,7,8-hexahydrocyclopenta [b]cyclopenta[4,5] thieno[3,2-e]pyridin-9-amine] | 91.7 ± 25.7 |

Same assay, conditions: Rattus norvegicus, po, 3 h, read-out: % Inhibition (paw volume)

| SMILES | inhibition in vivo at 100 mg/kg [%] |
| --- | --- |
| Nc1c2c(nc3sc4c(c13)CCC4)CCC2 [BN-13, 1,2,3,6,7,8-hexahydrocyclopenta [b]cyclopenta[4,5] thieno[3,2-e]pyridin-9-amine] | 12.3 ± 1.95 |

Same assay, conditions: Rattus norvegicus; test compounds 100 mg/kg oral, Indomethacin 10 mg/kg oral; 3 hrs after Carrageenan; read-out: % Increase in Paw Volume

| SMILES | change in vivo at 100 mg/kg [%] |
| --- | --- |
| Nc1c2c(nc3sc4c(c13)CCCC4)CCC2 [BN-5, 2,3,6,7,8,9-Hexahydro-1H-benzo[4,5]thieno[2,3-b]cyclopenta[e]pyridin-10-amine] | 101 ± 2.94 |

Same assay, conditions: Rattus norvegicus; test compounds 100 mg/kg oral, Indomethacin 10 mg/kg oral; 3 hrs after Carrageenan; read-out: % Inhibition (paw volume)

| SMILES | inhibition in vivo at 100 mg/kg [%] |
| --- | --- |
| Nc1c2c(nc3sc4c(c13)CCCC4)CCC2 [BN-5, 2,3,6,7,8,9-Hexahydro-1H-benzo[4,5]thieno[2,3-b]cyclopenta[e]pyridin-10-amine] | 4.32 ± 1.19 |
